For one assay, the target named is T1, HDAC1 enzyme (Homo sapiens, UniProt Q13547).
T1 construct: prepared by transducing full length HDAC1 and HDAC6 genes into Sf-9 insect cells; GST; purchased SignalChem; host or cells: Sf-9 insect cells
Put plainly: HDAC1 enzyme inhibitory assay (HDAC-Glo I/II Assay kit). It is filed as biochemical. The note with it: 1 μM test compound; read-out: HDAC1 inhibitory rate (%) (1 μM). The method in brief:
(§1)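 Relative activity was calculated from luminescence, with wells lacking enzyme defined as 100% inhibition. The enzymes were full-length HDAC1 or HDAC6 from Sf-9 cells, preincubated with test compound for 60 min before a 20-min substrate-developer reaction at room temperature.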

The next assay has as its target T2, HDAC6 enzyme (Homo sapiens, UniProt Q9UBN7).
T2 construct: prepared by transducing full length HDAC1 and HDAC6 genes into Sf-9 insect cells; GST; purchased SignalChem; host or cells: Sf-9 insect cells
T2 sequence (Q9UBN7 1-1215): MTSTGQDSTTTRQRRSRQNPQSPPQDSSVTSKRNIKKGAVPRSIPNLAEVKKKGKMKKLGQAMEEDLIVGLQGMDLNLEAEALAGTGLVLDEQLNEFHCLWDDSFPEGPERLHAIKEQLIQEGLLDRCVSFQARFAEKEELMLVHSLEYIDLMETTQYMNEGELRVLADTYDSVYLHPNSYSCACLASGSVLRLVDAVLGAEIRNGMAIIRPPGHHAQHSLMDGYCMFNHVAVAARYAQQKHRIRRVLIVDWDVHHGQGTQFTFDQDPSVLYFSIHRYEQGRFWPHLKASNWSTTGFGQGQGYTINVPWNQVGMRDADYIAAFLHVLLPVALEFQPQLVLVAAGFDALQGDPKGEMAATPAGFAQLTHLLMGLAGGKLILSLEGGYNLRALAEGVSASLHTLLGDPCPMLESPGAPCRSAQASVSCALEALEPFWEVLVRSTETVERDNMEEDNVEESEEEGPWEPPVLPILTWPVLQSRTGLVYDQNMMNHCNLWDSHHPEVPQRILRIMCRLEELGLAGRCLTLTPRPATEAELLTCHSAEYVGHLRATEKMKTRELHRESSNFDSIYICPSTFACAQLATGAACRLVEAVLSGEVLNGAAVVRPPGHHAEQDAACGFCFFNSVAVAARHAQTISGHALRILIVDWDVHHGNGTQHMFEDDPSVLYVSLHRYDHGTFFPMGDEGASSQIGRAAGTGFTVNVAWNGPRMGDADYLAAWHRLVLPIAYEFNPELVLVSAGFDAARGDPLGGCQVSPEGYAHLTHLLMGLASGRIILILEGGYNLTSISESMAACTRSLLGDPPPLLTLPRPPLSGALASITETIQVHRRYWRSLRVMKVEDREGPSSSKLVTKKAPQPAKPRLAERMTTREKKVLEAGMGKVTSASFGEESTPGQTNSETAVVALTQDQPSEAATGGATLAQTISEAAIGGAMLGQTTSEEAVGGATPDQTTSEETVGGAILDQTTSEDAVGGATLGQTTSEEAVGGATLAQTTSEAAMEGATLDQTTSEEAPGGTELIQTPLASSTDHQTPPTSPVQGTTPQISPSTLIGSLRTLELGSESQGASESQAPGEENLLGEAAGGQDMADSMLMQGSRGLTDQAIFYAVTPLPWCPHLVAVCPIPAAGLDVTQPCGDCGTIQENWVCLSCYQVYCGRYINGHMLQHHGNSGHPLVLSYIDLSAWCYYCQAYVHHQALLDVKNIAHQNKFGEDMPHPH
Briefly: HDAC6 enzyme inhibitory assay (HDAC-Glo I/II Assay kit). The note with it: 1 μM test compound; read-out: HDAC6 inhibitory rate (%) (1 μM). It is filed as biochemical. The essentials:
as §1

T1 sequence (Q13547 whole entry): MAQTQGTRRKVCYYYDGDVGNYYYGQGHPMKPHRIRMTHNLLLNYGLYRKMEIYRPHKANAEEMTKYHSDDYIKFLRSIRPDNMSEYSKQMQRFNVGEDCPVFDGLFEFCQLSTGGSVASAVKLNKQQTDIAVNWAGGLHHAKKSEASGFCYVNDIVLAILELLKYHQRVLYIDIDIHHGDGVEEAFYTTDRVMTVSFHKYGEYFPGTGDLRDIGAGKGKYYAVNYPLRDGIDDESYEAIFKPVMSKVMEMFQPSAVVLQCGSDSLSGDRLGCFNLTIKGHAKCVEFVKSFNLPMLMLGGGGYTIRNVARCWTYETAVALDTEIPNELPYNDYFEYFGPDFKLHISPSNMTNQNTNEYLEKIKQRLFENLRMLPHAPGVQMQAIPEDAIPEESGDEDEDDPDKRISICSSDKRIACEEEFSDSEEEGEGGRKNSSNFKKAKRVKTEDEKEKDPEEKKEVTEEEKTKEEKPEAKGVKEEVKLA

With `O=C(NC[C@@H]1COCCN1C(=O)C1CCCC1)c1ccc(-c2noc(C(F)(F)F)n2)cc1` [Example 149, N-(((3R)-4-(cyclopentylcarbonyl)morpholin-3-yl)methyl)-4-(5-(trifluoromethyl)-1,2,4-oxadiazol-3-yl)benzamide], the inhibition at 1 µM on HDAC1 enzyme was found to be 12%; at HDAC6 enzyme it was 96%.
For `O=C(NC[C@@H]1COCCN1C(=O)C1CCCCC1)c1ccc(-c2noc(C(F)(F)F)n2)cc1` [Example 152, N-(((3R)-4-(cyclohexylcarbonyl)morpholin-3-yl)methyl)-4-(5-(trifluoromethyl)-1,2,4-oxadiazol-3-yl)benzamide], in that order: 20% and 99%.
For `O=C(NC[C@@H]1COCCN1C(=O)C1CCOCC1)c1ccc(-c2noc(C(F)(F)F)n2)cc1` [Example 153, N-(((3R)-4-(tetrahydro-2H-pyran-4-ylcarbonyl)morpholin-3-yl)methyl)-4-(5-(trifluoromethyl)-1,2,4-oxadiazol-3-yl)benzamide], in that order: 3% and 92%.
Taken in the same sequence, the figures for `O=C(NC[C@@H]1COCCN1C(=O)c1cc(F)cc(F)c1)c1ccc(-c2noc(C(F)(F)F)n2)cc1` [Example 155, N-(((3R)-4-(3,5-difluorobenzoyl)morpholin-3-yl)methyl)-4-(5-(trifluoromethyl)-1,2,4-oxadiazol-3-yl)benzamide] were 15% and 99%.
Consider `Cn1nc2ccccc2c1C(=O)N1CCOC[C@H]1CNC(=O)c1ccc(-c2noc(C(F)(F)F)n2)cc1` [Example 157, N-(((3R)-4-((2-methyl-2H-indazol-3-yl)carbonyl)morpholin-3-yl)methyl)-4-(5-(trifluoromethyl)-1,2,4-oxadiazol-3-yl)benzamide], for which the inhibition at 1 µM turned out to be 31% at HDAC1 enzyme and 92% on HDAC6 enzyme.
Taken in the same sequence, the figures for `O=C(NC[C@@H]1COCCN1C(=O)N1CCCCC1)c1ccc(-c2noc(C(F)(F)F)n2)cc1` [Example 158, N-(((3R)-4-(piperidin-1-ylcarbonyl)morpholin-3-yl)methyl)-4-(5-(trifluoromethyl)-1,2,4-oxadiazol-3-yl)benzamide] were 12% and 97%.
For `CN(CC1COCCN1C(=O)c1ccccc1)C(=O)c1ccc(-c2noc(C(F)(F)F)n2)cc1` (stereo not shown) [Example 159, N-((4-benzoylmorpholin-3-yl)methyl)-N-methyl-4-(5-(trifluoromethyl)-1,2,4-oxadiazol-3-yl)benzamide], in that order: 11% and 42%.
Taken in the same sequence, the figures for `O=C(C[C@H]1COCCN1C(=O)c1ccccc1)Nc1ccc(-c2noc(C(F)(F)F)n2)cc1` [Example 160, 2-((3S)-4-benzoylmorpholin-3-yl)-N-(4-(5-(trifluoromethyl)-1,2,4-oxadiazol-3-yl)phenyl)acetamide] were 15% and 98%.
Turning to `CN(C(=O)C[C@H]1COCCN1C(=O)c1ccccc1)c1ccc(-c2noc(C(F)(F)F)n2)cc1` [Example 161, 2-((3S)-4-benzoylmorpholin-3-yl)-N-methyl-N-(4-(5-(trifluoromethyl)-1,2,4-oxadiazol-3-yl)phenyl)acetamide], the values for the inhibition at 1 µM on HDAC1 enzyme and on HDAC6 enzyme were 6% and 48%, respectively.
Taken in the same sequence, the figures for `O=C(NCC1CCCN1C(=O)c1ccccc1)c1ccc(-c2noc(C(F)(F)F)n2)cc1` (stereo not shown) [Example 162, N-((1-benzoylpyrrolidin-2-yl)methyl)-4-(5-(trifluoromethyl)-1,2,4-oxadiazol-3-yl)benzamide] were 16% and 97%.
Taken in the same sequence, the figures for `O=C(NCC1CCCCN1C(=O)c1ccccc1)c1ccc(-c2noc(C(F)(F)F)n2)cc1` (stereo not shown) [Example 163, N-((1-benzoylpiperidin-2-yl)methyl)-4-(5-(trifluoromethyl)-1,2,4-oxadiazol-3-yl)benzamide] were 25% and 97%.

These data come from patent US10081624B2, “Heterocyclic compound” (Takeda Pharmaceutical Company Limited, priority 2014, dated 2018).
